Laboratory results taken from patent US6511670B1, “(poly)thiaalkynoic compounds and pharmaceutical/cosmetic compositions comprised thereof” (Societe L'Oreal S.A., priority 1999, dated 2003).

Columns and labels:
Format in all cases: cell-based
PPAR-δ = molecular target: T1, PPAR-δ (Homo sapiens, UniProt Q03181); experiment: transactivation test of PPAR-type receptors (luciferase reporter, cotransfected HeLa cells), PPAR-δ; conditions: HeLa cells cotransfected with PPAR-δ expression vector and PPRE-luciferase reporter, 24 hours, n.a. = not active; for AC50: concentration giving 50% of the activity of the reference molecule; for δ Ymax %: relative to Reference 2
T1 construct: expressed in transfected cells; host or cells: HeLa cells
T1 sequence (Q03181 1-441): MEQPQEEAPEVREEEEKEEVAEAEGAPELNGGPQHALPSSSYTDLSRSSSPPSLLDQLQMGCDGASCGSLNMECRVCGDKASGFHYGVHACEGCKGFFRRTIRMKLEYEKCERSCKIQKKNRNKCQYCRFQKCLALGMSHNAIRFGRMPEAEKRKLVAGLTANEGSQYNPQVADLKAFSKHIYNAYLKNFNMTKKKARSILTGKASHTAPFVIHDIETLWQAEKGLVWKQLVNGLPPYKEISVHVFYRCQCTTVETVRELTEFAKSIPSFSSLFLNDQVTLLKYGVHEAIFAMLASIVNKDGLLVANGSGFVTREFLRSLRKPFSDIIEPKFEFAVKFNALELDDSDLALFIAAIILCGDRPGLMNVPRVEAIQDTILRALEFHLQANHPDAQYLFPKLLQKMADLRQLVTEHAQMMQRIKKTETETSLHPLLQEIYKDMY
Procedure: (§1) This activity is determined with the aid of a reporter enzyme (luciferase) for the activation due to the compound via one of the PPAR receptors, and more particularly of the PPAR-α type.
(§2) The biological tests carried out corresponded to those described in the application. […] Thus, the activating power via PPAR-α, PPAR-γ or PPAR-δ of molecules was evaluated with a transactivation test in which HeLa cells were cotransfected with an expression vector encoding these receptors and a reporter plasmid containing a PPRE response element cloned upstream of a portion of a promoter of the SV40 virus and of the luciferase gene. The cotransfected cells were treated for 24 hours with the molecules to be tested and the activity of the luciferase was determined by luminescence.

PPAR-α = molecular target: T2, PPAR-α (Homo sapiens, UniProt Q07869); experiment: transactivation test of PPAR-type receptors (luciferase reporter, cotransfected HeLa cells), PPAR-α; conditions: HeLa cells cotransfected with PPAR-α expression vector and PPRE-luciferase reporter, 24 hours, n.a. = not active; for AC50: concentration giving 50% of the activity of the reference molecule; for α Ymax %: relative to Reference 1
T2 construct: expressed in transfected cells; host or cells: HeLa cells
T2 sequence (Q07869 1-468): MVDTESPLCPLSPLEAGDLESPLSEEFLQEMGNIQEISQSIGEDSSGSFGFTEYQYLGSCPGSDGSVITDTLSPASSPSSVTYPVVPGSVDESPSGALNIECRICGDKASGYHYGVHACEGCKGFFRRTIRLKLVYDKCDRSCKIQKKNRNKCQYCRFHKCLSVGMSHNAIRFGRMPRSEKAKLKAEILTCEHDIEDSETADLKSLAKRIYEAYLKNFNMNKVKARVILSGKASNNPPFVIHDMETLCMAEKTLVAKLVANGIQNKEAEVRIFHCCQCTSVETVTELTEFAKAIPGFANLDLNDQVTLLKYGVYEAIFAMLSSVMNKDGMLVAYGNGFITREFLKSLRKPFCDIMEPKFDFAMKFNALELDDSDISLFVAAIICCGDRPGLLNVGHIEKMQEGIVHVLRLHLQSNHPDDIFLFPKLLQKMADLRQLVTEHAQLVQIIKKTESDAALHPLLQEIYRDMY
Procedure: as §1, §2

PPAR-γ = molecular target: T3, PPAR-γ (Homo sapiens, UniProt P37231); experiment: transactivation test of PPAR-type receptors (luciferase reporter, cotransfected HeLa cells), PPAR-γ; conditions: HeLa cells cotransfected with PPAR-γ expression vector and PPRE-luciferase reporter, 24 hours, n.a. = not active; for AC50: concentration giving 50% of the activity of the reference molecule; for γ Ymax %: relative to Reference 2
T3 construct: expressed in transfected cells; host or cells: HeLa cells
T3 sequence (P37231 1-505): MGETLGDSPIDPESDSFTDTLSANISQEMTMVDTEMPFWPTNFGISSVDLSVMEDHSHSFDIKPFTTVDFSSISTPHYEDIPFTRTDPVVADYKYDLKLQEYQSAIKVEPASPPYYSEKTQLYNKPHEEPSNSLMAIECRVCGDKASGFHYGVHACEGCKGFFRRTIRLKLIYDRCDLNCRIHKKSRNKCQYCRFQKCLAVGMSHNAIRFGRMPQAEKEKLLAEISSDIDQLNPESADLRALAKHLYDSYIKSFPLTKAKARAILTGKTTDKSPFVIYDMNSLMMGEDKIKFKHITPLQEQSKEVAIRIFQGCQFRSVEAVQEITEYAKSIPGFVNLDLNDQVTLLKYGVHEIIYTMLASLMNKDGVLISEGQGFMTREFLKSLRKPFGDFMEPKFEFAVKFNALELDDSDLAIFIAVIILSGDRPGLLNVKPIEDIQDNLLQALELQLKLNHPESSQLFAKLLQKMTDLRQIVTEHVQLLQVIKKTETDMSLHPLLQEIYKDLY
Procedure: as §1, §2

Q: What does the source list for CCCCCC#CCC#CCC#CCC#CCSCC(=O)O [Comparative Example 1, 3-thia-5,8,11,14-eicosatetraynoic acid]?
A: AC50 (PPAR-δ): 7 µM; δ Ymax % (PPAR-δ): 125%; AC50 (PPAR-α): 4000 nM; α Ymax % (PPAR-α): 128%; AC50 (PPAR-γ): 3 µM; γ Ymax % (PPAR-γ): 83%

Q: For CCCCCCCCC#CCC#CCC#CCSCC(=O)O [Comparative Example 2, 3-thia-5,8,11-eicosatriynoic acid], which AC50 (PPAR-δ) is on record?
A: Its AC50 is 11 µM.

Q: What about the “δ Ymax %” value (PPAR-δ) of the same compound?
A: The value was 74%.

Q: What about the AC50 (PPAR-α) of the same compound?
A: The AC50 was 5000 nM.

Q: What about the “α Ymax %” value (PPAR-α) of the same compound?
A: The value was 112%.

Q: And the AC50 (PPAR-γ)?
A: The AC50 was 4 µM.

Q: What about the “γ Ymax %” value (PPAR-γ) of the same compound?
A: Its value is 58%.

Q: Which AC50 (PPAR-α) does the source give for CCCCCCCCSCC#CCSCC(=O)O [Example 8, 3,8-Dithia-5-hexadecynoic Acid] here?
A: The AC50 was 2900 nM.

Q: And the “α Ymax %” value (PPAR-α)?
A: Its value is 91%.

Q: For CCCCCCCCCCC#CCSCC(=O)O [Example 10, 3-Thia-5-hexadecynoic Acid], which AC50 (PPAR-α) is on record?
A: Its AC50 is 1500 nM.

Q: And the “α Ymax %” value (PPAR-α)?
A: Its value is 142%.

Q: What does the source list for CCCCCCCCC#CCC#CCSCC(=O)O [Example 14, 3-Thia-5,8-heptadecadiynoic Acid]?
A: AC50 (PPAR-α): 1000 nM; α Ymax % (PPAR-α): 116%

Q: Which results are given for CCCCCC#CCC#CCC#CCSCC(=O)O [Example 21, 3-Thia-5,8,11-heptadecatriynoic Acid]?
A: AC50 (PPAR-α): 3000 nM; α Ymax % (PPAR-α): 138%

Q: How did the “α Ymax %” value (PPAR-α) turn out when Cc1cccc(Nc2cc(Cl)nc(SCC(=O)O)n2)c1C [Reference 1, [4-chloro-6-(2,3-dimethylphenylamino)pyrimidin-2-ylsulfanyl]acetic acid] was run?
A: Its value is 100%.
